Target: T1, recombinant wild-type HIV-1 PR (Human immunodeficiency virus type 1 group M subtype B, UniProt P04585)
T1 construct: recombinant wild-type HIV-1 PR from Bachem; purchased Bachem
Test: In vitro fluorometric HIV-1 protease inhibition assay (fluorogenic substrate Abz-Thr-Ile-Nle-Phe(p-NO2)-Gln-Arg-NH2, pH 5.5)
Assay type: biochemical
Conditions: not given
Procedure: IC50 values were determined at pH 5.5 using recombinant wild-type HIV-1 PR from Bachem and the fluorogenic substrate Abz-Thr-Ile-Nle-Phe(p-NO2)-Gln-Arg-NH2 (Abz-NF⁄-6; Bachem AG, Bubendorf, CH). […] The assay was performed as follows: Dilution Buffer: 100 mM MES buffer, pH 5.5, containing 400 mM NaCl, 1 mM EDTA, 1 mM DTT and 1 mg/mL BSA. Solution A: 10 μL of a substrate stock solution in DMSO (10 mg/ml, 10.6 mM) were diluted in 1.99 ml of dilution buffer to a final concentration of […]. Solution B: 10 μL of a protease stock solution (0.4 mg/mL) in 10 mM sodium phosphate buffer, pH 6.5, containing 1 mM EDTA, 10% glycerol, 0.05% mercaptoethanol, 50 mM NaCl, were diluted 100 times with the dilution buffer, pH 5.5, to a final concentration of 0.004 mg/ml.
Assay: 114 μL of solution A, 11 μL of solution B and 75 μL of the dilution buffer were pre-incubated in a cuvette at 25 °C, and the fluorescence was recorded at 325 nm excitation and 420 nm emission for 10 min. A total of 2 μL of the inhibitor in DMSO was then added, and the fluorescence was recorded for a further 10 min. […] IC50 was obtained by measuring the relative residual enzyme activity (ratio of the increase of fluorescence velocities before and after the addition of inhibitor) and by fitting the residual activity vs. inhibitor concentration semilog plots to a tetraparametric logistic function (Sigma plot 2001, SPSS Inc., Chicago, IL, USA). All the measures were triplicated.
IC50 values were obtained on recombinant wild-type HIV protease by measuring the initial rates of hydrolysis of the fluorogenic substrate Abz-Thr-Ile-Nle-Phe(NO2)-Gln-Arg (Table 1). The initial rates of the enzyme-catalyzed reactions were measured at different inhibitors concentrations, while the reference rates for the not-inhibited reactions were measured each time before the addition of the inhibitors. IC50 was obtained by measuring the relative residual enzyme activity (ratio of the increase of fluorescence velocities before and after the addition of inhibitor) and by fitting the residual activity vs. inhibitor concentration semilog plots to a tetraparametric logistic function.

Compound	IC50
O=C(N[C@@H](Cc1ccccc1)[C@H](O)CN(Cc1ccccc1)S(=O)(=O)c1ccc([N+](=O)[O-])cc1)c1ccc2sccc2c1 [Compound 7a, N-((2S,3R)-3-hydroxy-4-(N-benzyl-4-nitrophenylsulfonamido)-1-phenylbutan-2-yl)benzo[b]thiophene-5-carboxamide]	4.2 nM
COc1ccc(S(=O)(=O)N(Cc2ccccc2)C[C@@H](O)[C@H](Cc2ccccc2)NC(=O)c2ccc3sccc3c2)cc1 [Compound 7b, N-((2S,3R)-3-hydroxy-4-(N-benzyl-4-methoxyphenylsulfonamido)-1-phenylbutan-2-yl)benzo[b]thiophene-5-carboxamide]	2.3 nM
COc1ccc(S(=O)(=O)N(Cc2ccccc2)C[C@@H](O)[C@H](Cc2ccccc2)NC(=O)c2ccc3sccc3c2)cc1OC [Compound 7c, N-((2S,3R)-3-hydroxy-4-(N-benzyl-3,4-dimethoxyphenylsulfonamido)-1-phenylbutan-2-yl)benzo[b]thiophene-5-carboxamide]	6.2 nM
O=C(N[C@@H](Cc1ccccc1)[C@H](O)CN(Cc1ccccc1)S(=O)(=O)c1ccc([N+](=O)[O-])cc1)c1ccc2occc2c1 [Compound 8a, N-((2S,3R)-3-hydroxy-4-(N-benzyl-4-nitrophenylsulfonamido)-1-phenylbutan-2-yl)benzofuran-5-carboxamide]	47 nM
COc1ccc(S(=O)(=O)N(Cc2ccccc2)C[C@@H](O)[C@H](Cc2ccccc2)NC(=O)c2ccc3occc3c2)cc1 [Compound 8b, N-((2S,3R)-3-hydroxy-4-(N-benzyl-4-methoxyphenylsulfonamido)-1-phenylbutan-2-yl)benzofuran-5-carboxamide]	9.6 nM
COc1ccc(S(=O)(=O)N(Cc2ccccc2)C[C@@H](O)[C@H](Cc2ccccc2)NC(=O)c2ccc3occc3c2)cc1OC [Compound 8c, N-((2S,3R)-3-hydroxy-4-(N-benzyl-3,4-dimethoxyphenylsulfonamido)-1-phenylbutan-2-yl)benzofuran-5-carboxamide]	82 nM

Same assay, conditions: read-out: residual activity at the 0.5 nM inhibitor

Compound	remaining activity at 0.0005 µM
O=C(N[C@@H](Cc1ccccc1)[C@H](O)CN(Cc1ccccc1)S(=O)(=O)c1ccc([N+](=O)[O-])cc1)c1ccc2[nH]ccc2c1 [Compound 9a, N-((2S,3R)-3-hydroxy-4-(N-benzyl-4-nitrophenylsulfonamido)-1-phenylbutan-2-yl)1H-indol-5-carboxamide]	27.7%
COc1ccc(S(=O)(=O)N(Cc2ccccc2)C[C@@H](O)[C@H](Cc2ccccc2)NC(=O)c2ccc3[nH]ccc3c2)cc1 [Compound 9b, N-((2S,3R)-3-hydroxy-4-(N-benzyl-4-methoxyphenylsulfonamido)-1-phenylbutan-2-yl)1H-indol-5-carboxamide]	36.3%
COc1ccc(S(=O)(=O)N(Cc2ccccc2)C[C@@H](O)[C@H](Cc2ccccc2)NC(=O)c2ccc3[nH]ccc3c2)cc1OC [Compound 9c, N-((2S,3R)-3-hydroxy-4-(N-benzyl-3,4-dimethoxyphenylsulfonamido)-1-phenylbutan-2-yl)1H-indol-5-carboxamide]	10.2%
